Read-outs that look alike come from different tables or passages of the source.
How the values were obtained:
Type in all cases: cell-based
[1] = Cell viability measurement (MTS), Vero cells; conditions: monkey
Description: (§1) Experimental Example 3: Cell Viability Measurement
(§2) Vero cell line (VERO01WCB-1201, Ministry of Food and Drug Safety, Republic of Korea), Calu-3 cell line (KCLB #30055, Korea Cell Line Bank (KCLB), Republic of Korea), CellTiter 96® AQueous One Solution Cell Proliferation Assay kit (Promega, cat. #G3582), and Infinite M200 microplate reader (Tecan).
Vero cells were cultured at 37 °C and 5% CO2 in DMEM medium supplemented with 10% fetal bovine serum, 100 units/mL penicillin, and 100 μg/mL streptomycin.
(§3) Vero cells or Calu-3 cells were seeded in 96-well microplates and cultured for 24 hours until the cell confluency reached 20%. After the incubation, compounds were treated in DMSO at concentrations (1, 3, and 10 μM) to reach 0.5% v/v in each well, and reacted at 37 °C for 48 hours. Into each well of the incubated 96-well microplate, 3-(4,5-dimethylthiazol-2-yl)-5-(3-carboxymethoxyphenyl)-2-(4-sulfophenyl)-2H-tetrazolium salt (MTS) assay solution [CellTiter 96® AQueous One Solution Cell Proliferation Assay kit (Promega)] mixed with DMEM medium at a ratio of 1:5, was dispensed at 100 μL/well and incubated at 37 °C for 1 hour. The 490 nm and 690 nm absorbance was then measured using an Infinite M200 instrument.
(§4) The cell viability (also, referred to as cell survival rate) (%) by compound treatment was calculated using the following analysis method. The 690 nm background absorbance value was subtracted from the measured 490 nm absorbance value. Then, to obtain the cell viability of each test group, the viability of the DMSO-treated group that was not treated with the compound was set to 100% and then the relative viability 1 of each compound was calculated. Two to six repeated tests were performed to obtain the results, and the mean values of the results were categorized into the following ranges and shown in Table 5 below (A: 80% survived, B: 50-80% survived, N/A: not tested)

[2] = Cell viability measurement (MTS), Calu-3 cells; conditions: human
Description: as §1, §2
Calu-3 cells were cultured at 37 °C and 5% CO2 in MEM medium supplemented with 10% fetal bovine serum, 2.2 g/L sodium bicarbonate, 1% 100 units/mL penicillin, and 100 μg/mL streptomycin.
as §3, §4

[3] = test system: Severe Acute Respiratory Syndrome Coronavirus Type 2; test: microbe, parasite or virus in culture; conditions: Vero, read-out: Virus replication inhibition efficacy
[4] = test system: Severe Acute Respiratory Syndrome Coronavirus Type 2; test: microbe, parasite or virus in culture; conditions: read-out: Virus replication inhibition efficacy
[5] = 10 uM, virus strain NCCP-43388, 48 hours
[6] = Calu-3, 10 uM, virus strain NCCP-43388, 48 hours
[7] = 10 uM, virus strain NCCP-43344, 48 hours
[8] = Calu-3, 10 uM, virus strain NCCP-43344, 48 hours

Compound	viability at 48 h, 1 µM [1]	viability at 48 h, 3 µM [1]	viability at 48 h, 10 µM [1]	viability at 48 h, 1 µM [2]	inhibition at 10 µM [3, 5]	inhibition at 10 µM [4, 6]	inhibition at 10 µM [3, 7]	inhibition at 10 µM [4, 8]	viability at 48 h, 3 µM [2]	viability at 48 h, 10 µM [2]	inhibition at 10 µM ([3]; 48 h)	inhibition at 10 µM ([4]; Calu-3, 48 h)
c1ccc(-c2ccc(Nc3cccc(-c4nc5ccccc5[nH]4)c3)nn2)cc1 [Example 2, N-(3-(1H-benzo[d]imidazol-2-yl)phenyl)-6-phenylpyridazin-3-amine]	> 80%	> 80%	50 to 80%	50 to 80%	> 60%	> 60%						
Clc1cc2nc(-c3cccc(Nc4ccc(-c5ccccc5)nn4)c3)[nH]c2cc1Cl [Example 7, N-(3-(5,6-dichloro-1H-benzo[d]imidazol-2-yl)phenyl)-6-phenylpyridazin-3-amine]	> 80%	> 80%					30 to 60%	30 to 60%				
FC(F)(F)c1cc2nc(-c3cccc(Nc4ccc(-c5ccccc5)nn4)c3)[nH]c2cc1Cl [Example 8, N-{3-[6-chloro-5-(trifluoromethyl)-1H-benzo[d]imidazol-2-yl]phenyl}-6-phenylpyridazin-3-amine]	> 80%	> 80%					30 to 60%	30 to 60%				
c1ccc(-c2ccc(Nc3cccc(-c4nc5ccccc5[nH]4)c3)cc2)nc1 [Example 20, 3-(1H-benzo[d]imidazol-2-yl)-N-(4-(pyridin-2-yl)phenyl)aniline]	> 80%		50 to 80%	> 80%	> 60%	> 60%			50 to 80%			
c1cc(Nc2ccc(-c3cccnn3)cc2)cc(-c2nc3ccccc3[nH]2)c1 [Example 21, 3-(1H-benzo[d]imidazol-2-yl)-N-(4-(pyridazin-3-yl)phenyl)aniline]		> 80%	50 to 80%	> 80%	> 60%	> 60%			50 to 80%	50 to 80%		
c1cc(Nc2ccc(-c3ccncn3)cc2)cc(-c2nc3ccccc3[nH]2)c1 [Example 22, N-[3-(1H-benzo[d]imidazol-2-yl)phenyl]-4-(pyrimidin-4-yl)aniline]	> 80%	> 80%	50 to 80%	> 80%			> 60%	> 60%				
FC(F)(F)c1ccc2nc(-c3cccc(Nc4ccc(-c5cccnn5)cc4)c3)[nH]c2c1 [Example 23, N-(4-(pyridazin-3-yl)phenyl)-3-(6-(trifluoromethyl)-1H-benzo[d]imidazol-2-yl)aniline]	> 80%	> 80%		> 80%			> 60%	> 60%	50 to 80%			
FC(F)(F)c1ccc2nc(-c3cccc(Nc4ccc(-c5ccncn5)cc4)c3)[nH]c2c1 [Example 24, N-(4-(pyrimidin-4-yl)phenyl)-3-(6-(trifluoromethyl)-1H-benzo[d]imidazol-2-yl)aniline]	> 80%	> 80%		> 80%			> 60%	> 60%				
c1cnc(-c2ccc(Nc3cccc(-c4nc5ccccc5[nH]4)c3)cc2)nc1 [Example 26, N-[3-(1H-benzo[d]imidazol-2-yl)phenyl]-4-(pyrimidin-2-yl)aniline]	> 80%		> 80%	> 80%			> 60%	> 60%	50 to 80%			
FC(F)(F)c1ccc2nc(-c3cccc(Nc4ccc(-c5ncccn5)cc4)c3)[nH]c2c1 [Example 27, N-[4-(pyrimidin-2-yl)phenyl]-3-[6-(trifluoromethyl)-1H-benzo[d]imidazol-2-yl]aniline]	> 80%	> 80%			> 60%	> 60%						
FC(F)(F)c1ccc2nc(-c3cccc(Nc4ccc(-c5cncnc5)cc4)c3)[nH]c2c1 [Example 28, N-[4-(pyrimidin-5-yl)phenyl]-3-[6-(trifluoromethyl)-1H-benzo[d]imidazol-2-yl]aniline]	> 80%				> 60%	> 60%						
FC(F)(F)c1ccc2nc(-c3cccc(Nc4ncc(-c5ccccn5)cn4)c3)[nH]c2c1 [Example 83, 5-(2-pyridyl)-N-[3-[6-(trifluoromethyl)-1H-benzo[d]imidazol-2-yl]phenyl]pyrimidin-2-amine]				> 80%	30 to 60%	30 to 60%			> 80%	> 80%		
Cc1noc(-c2ccc3nc(-c4cccc(Nc5ccc(-c6cccnn6)cc5)c4)[nH]c3c2)n1 [Example 93, 3-(6-(3-methyl-1,2,4-oxadiazol-5-yl)-1H-benzo[d]imidazol-2-yl)-N-(4-(pyridazin-3-yl)phenyl)aniline]				> 80%	30 to 60%	> 60%			> 80%	> 80%		
Fc1cc2[nH]c(-c3cccc(Nc4ccc(-c5cccnn5)cc4)c3)nc2cc1Cl [Example 102, 3-(5-chloro-6-fluoro-1H-benzo[d]imidazol-2-yl)-N-(4-pyridazin-3-ylphenyl)aniline]				> 80%	> 60%	> 60%			> 80%	50 to 80%		
Cc1ccc2nc(-c3cccc(Nc4ccc(-c5cccnn5)cc4)c3)[nH]c2c1 [Example 105, 3-(6-methyl-1H-benzo[d]imidazol-2-yl)-N-(4-pyridazin-3-ylphenyl)aniline]				> 80%	> 60%	> 60%			50 to 80%	50 to 80%		
Clc1ccc2nc(-c3cccc(Nc4ccc(-c5cccnn5)cc4)c3)[nH]c2c1 [Example 226, 3-(6-chloro-1H-benzo[d]imidazol-2-yl)-N-(4-(pyridazin-3-yl)phenyl)aniline]					> 60%	> 60%						
O=[N+]([O-])c1ccc2nc(-c3cccc(Nc4ccc(-c5cccnn5)cc4)c3)[nH]c2c1 [Example 227, 3-(6-nitro-1H-benzo[d]imidazol-2-yl)-N-(4-(pyridazin-3-yl)phenyl)aniline]					30 to 60%	> 60%						
N#Cc1ccc2nc(-c3cccc(Nc4ccc(-c5cccnn5)cc4)c3)[nH]c2c1 [Example 231, 2-(3-((4-(pyridazin-3-yl)phenyl)amino)phenyl)-1H-benzo[d]imidazole-6-carbonitrile]					> 60%	> 60%						
FC(F)(F)Oc1cc2[nH]c(-c3cccc(Nc4ccc(-c5cccnn5)cc4)c3)nc2cn1 [Example 232, N-(4-(pyridazin-3-yl)phenyl)-3-(6-(trifluoromethoxy)-1H-imidazo[4,5-c]pyridin-2-yl)aniline]											30 to 60%	> 60%
Fc1cccc(-c2cnc(Nc3cccc(-c4nc5ccccc5[nH]4)c3)nc2)n1 [Example 259, N-(3-(1H-benzo[d]imidazol-2-yl)phenyl)-5-(6-fluoropyridin-2-yl)pyrimidin-2-amine]					> 60%	> 60%						
